Data from ChEMBL document CHEMBL3885881, “DrugMatrix”.

Species on record: Rattus norvegicus
Assay: DrugMatrix - Regimen: Daily Repeat
Assay type: toxicity, organism-based, Sprague-Dawley
Design: regimen Daily Repeat, gender Male, age 6-8 weeks
Conditions: in vivo, sc, route subcutaneous, […]; for ABSOLUTE MONOCYTE / ABSOLUTE SEGMENTED NEUTROPHIL / BASOPHIL / EOSINOPHIL / ERYTHROCYTE COUNT / HEMATOCRIT / HEMOGLOBIN / LEUKOCYTE COUNT / LYMPHOCYTE / MEAN CORPUSCULAR HEMOGLOBIN / MEAN CORPUSCULAR HEMOGLOBIN CONCENTRATION / MONOCYTE / NEUTROPHIL / NUCLEATED RED BLOOD CELLS / PLATELET COUNT / ABSOLUTE BASOPHIL / ABSOLUTE EOSINOPHIL / ABSOLUTE LYMPHOCYTE: tissue Blood
[1] = 10 mg/kg, 120 h, dose level Low, time 5 day
[2] = 10 mg/kg, 120 h, tissue Plasma, dose level Low, time 5 day
[3] = 100 mg/kg, 72 h, dose level High, time 3 day
[4] = 100 mg/kg, 72 h, tissue Plasma, dose level High, time 3 day
[5] = 100 mg/kg, 120 h, dose level High, time 5 day
[6] = 100 mg/kg, 120 h, tissue Plasma, dose level High, time 5 day

COBALT(II) ACETYLACETONATE
ABSOLUTE MONOCYTE [1]: 35.33 CELLS/uL | ABSOLUTE SEGMENTED NEUTROPHIL [1]: 1425 CELLS/uL | BASOPHIL [1]: 0% | EOSINOPHIL [1]: 1% | ERYTHROCYTE COUNT [1]: 5.83 x10E6/uL | HEMATOCRIT [1]: 36.63% | HEMOGLOBIN [1]: 13.67 G/DL | LEUKOCYTE COUNT [1]: 11.87 x10E3/uL | LYMPHOCYTE [1]: 86.67% | MEAN CORPUSCULAR HEMOGLOBIN [1]: 23.47 pg | MEAN CORPUSCULAR HEMOGLOBIN CONCENTRATION [1]: 37.3 G/DL | MONOCYTE [1]: 0.33% | NEUTROPHIL [1]: 12% | NUCLEATED RED BLOOD CELLS [1]: 0 /100WBC | PLATELET COUNT [1]: 1357.67 x10E3/uL | ALANINE AMINOTRANSFERASE [2]: 36.67 u/L | ALBUMIN [2]: 4.6 G/DL | ALKALINE PHOSPHATASE [2]: 390 u/L | ASPARTATE AMINOTRANSFERASE [2]: 87 u/L | BLOOD UREA NITROGEN [2]: 22 mg/dL | CARBON DIOXIDE [2]: 21.67 mmol/L | CHOLESTEROL [2]: 77 mg/dL | CREATINE PHOSPHOKINASE [2]: 460.67 u/L | CREATININE [2]: 0.24 mg/dL | GLUCOSE [2]: 176.67 mg/dL | LACTATE DEHYDROGENASE [2]: 122.67 u/L | PHOSPHORUS [2]: 13.67 mg/dL | POTASSIUM [2]: 6.74 MEQ/L | TOTAL BILIRUBIN [2]: 0.2 mg/dL | TOTAL PROTEIN [2]: 6.7 G/DL | URIC ACID [2]: 2.8 mg/dL | ABSOLUTE BASOPHIL [3]: 0 CELLS/uL | ABSOLUTE EOSINOPHIL [3]: 73 CELLS/uL | ABSOLUTE LYMPHOCYTE [3]: 8659.67 CELLS/uL | ABSOLUTE MONOCYTE [3]: 133.33 CELLS/uL | ABSOLUTE SEGMENTED NEUTROPHIL [3]: 2500.67 CELLS/uL | BASOPHIL [3]: 0% | EOSINOPHIL [3]: 0.67% | ERYTHROCYTE COUNT [3]: 5.76 x10E6/uL | HEMOGLOBIN [3]: 13.3 G/DL | LEUKOCYTE COUNT [3]: 11.37 x10E3/uL | LYMPHOCYTE [3]: 75.67% | MEAN CORPUSCULAR HEMOGLOBIN [3]: 23.1 pg | MEAN CORPUSCULAR HEMOGLOBIN CONCENTRATION [3]: 37.2 G/DL | MONOCYTE [3]: 1% | NEUTROPHIL [3]: 22.67% | NUCLEATED RED BLOOD CELLS [3]: 0 /100WBC | PLATELET COUNT [3]: 1207 x10E3/uL | ALANINE AMINOTRANSFERASE [4]: 57.33 u/L | ALKALINE PHOSPHATASE [4]: 376.67 u/L | ASPARTATE AMINOTRANSFERASE [4]: 106 u/L | BLOOD UREA NITROGEN [4]: 17.67 mg/dL | CARBON DIOXIDE [4]: 26.33 mmol/L | CHLORIDE [4]: 109 MEQ/L | CHOLESTEROL [4]: 52.33 mg/dL | CREATINE PHOSPHOKINASE [4]: 315 u/L | CREATININE [4]: 0.2 mg/dL | LACTATE DEHYDROGENASE [4]: 200 u/L | LIPASE [4]: 9 u/L | PHOSPHORUS [4]: 10.3 mg/dL | POTASSIUM [4]: 5.87 MEQ/L | TOTAL BILIRUBIN [4]: 0.2 mg/dL | TOTAL PROTEIN [4]: 6 G/DL | URIC ACID [4]: 0.97 mg/dL | ABSOLUTE BASOPHIL [5]: 0 CELLS/uL | ABSOLUTE EOSINOPHIL [5]: 235.33 CELLS/uL | ABSOLUTE LYMPHOCYTE [5]: 15696 CELLS/uL | ABSOLUTE SEGMENTED NEUTROPHIL [5]: 4063 CELLS/uL | BASOPHIL [5]: 0% | ERYTHROCYTE COUNT [5]: 5.59 x10E6/uL | HEMATOCRIT [5]: 34.73% | HEMOGLOBIN [5]: 13.17 G/DL | LEUKOCYTE COUNT [5]: 20.17 x10E3/uL | LYMPHOCYTE [5]: 77% | MEAN CORPUSCULAR HEMOGLOBIN [5]: 23.57 pg | MEAN CORPUSCULAR HEMOGLOBIN CONCENTRATION [5]: 37.9 G/DL | MONOCYTE [5]: 1% | NEUTROPHIL [5]: 20.67% | NUCLEATED RED BLOOD CELLS [5]: 0 /100WBC | PLATELET COUNT [5]: 1455 x10E3/uL | ALANINE AMINOTRANSFERASE [6]: 47.67 u/L | ALBUMIN [6]: 3.9 G/DL | ALKALINE PHOSPHATASE [6]: 334.67 u/L | ASPARTATE AMINOTRANSFERASE [6]: 110.33 u/L | BLOOD UREA NITROGEN [6]: 19 mg/dL | CARBON DIOXIDE [6]: 16 mmol/L | CHLORIDE [6]: 111.67 MEQ/L | CHOLESTEROL [6]: 47.67 mg/dL | CREATINE PHOSPHOKINASE [6]: 488.33 u/L | CREATININE [6]: 0.18 mg/dL | LACTATE DEHYDROGENASE [6]: 467.33 u/L | LIPASE [6]: 8.33 u/L | PHOSPHORUS [6]: 12.73 mg/dL | POTASSIUM [6]: 7.45 MEQ/L | TOTAL BILIRUBIN [6]: 0.23 mg/dL | TOTAL PROTEIN [6]: 6.1 G/DL | URIC ACID [6]: 3.1 mg/dL
